Measurements published in the supplement of paper PMC3974653.
Counter-ions that a name gives are not always drawn.

Tested on: MTT (mouse pheochromocytoma)
Experiment: IC50 of cell viability (ATP content)
Conditions: (24 or 48 h)
Method in brief: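 Each well of a white 1536-well plate received 5 µl of MTT mouse pheochromocytoma cells at 200,000 cells/ml in DMEM containing 5% FBS and 1% horse serum. After overnight culture at 37°C, 5% CO2, cells were exposed for 24 or 48 hrs to 23 nl of library compound in DMSO, pinned at 8 final concentrations from 0.5 nM to 46 µM. CellTiter-Glo luminescence was read after 15 minutes, and IC50 was obtained from a four-parameter logistic fit of signals normalised to positive-control and DMSO wells.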

SMILES	IC50 of cell viability [µM]
NCCNCCNCCNCCN [Tetraethylenepentamine]	> 46
C1C[C@@H](\C2=N\CCN2)C3=C(C1)C=CC=C3 [Tetrahydrozoline hydrochloride]	> 46
CN(C)C(=S)SSC(=S)N(C)C [Tetramethylthiuram disulfide]	> 46
COC\1=C\C=C/2[C@H]3CC4=C5C(=C(OC)C=C4)OC1[C@@]25CCN3C (some centres undefined) [Thebaine]	> 46
CN1CCC(N(Cc2cccs2)c2ccccc2)CC1 [Thenalidine]	> 46
C[S+](=O)([O-])c1ccc([C@H](O)[C@H](CO)NC(=O)C(Cl)Cl)cc1 [Thiamphenicol]	> 46
COC1=C(OC)C2=C(CC[C@@H](NC(C)=O)C/3=C/C(=O)/C(=C/C=C23)SC)C=C1O[C@@H]4O[C@@H](CO)[C@@H](O)[C@@H](O)[C@H]4O [Thiocolchicoside]	> 46
CN1CCN(CCCN2c3ccccc3Sc3ccc([S+](=O)([O-])N(C)C)cc32)CC1.C[S+](=O)([O-])O.C[S+](=O)([O-])O [Thioproperazine dimesylate]	> 46
O=C(O)c1ccccc1S [Thiosalicylic acid]	> 46
Cc1ccc(C(C)C)c(O)c1 [Thymol]	> 46
[H][C@]1(CCCN(CC\C=C(\C2=C(C)C=CS2)C3=C(C)C=CS3)C1)C(O)=O [Tiagabine hydrochloride]	> 46
CCN[C@@]1(c2cccs2)CCCCC1=O [Tiletamine hydrochloride]	> 46
Cc1ccc(O)c2ncccc12 [Tiliquinol]	> 46
Clc1ccc2nsnc2c1NC1=NCCN1 [Tizanidina]	> 46
NC[C@@H]1O[C@@H](O[C@H]2[C@@H](O)[C@H](O[C@@H]3O[C@@H](CO)[C@H](O)[C@H](N)[C@@H]3O)[C@@H](N)C[C@H]2N)[C@H](N)C[C@@H]1O [Tobramycin]	> 46
Cc1c(C)c2c(c(C)c1OC(=O)CCC(=O)OCCO)CC[C@](C)(CCC[C@H](C)CCC[C@H](C)CCCC(C)C)O2 [Tocofersolan]	> 46
C1C\N=C(\CC2=CC=CC=C2)N1 [Tolazoline hydrochloride]	> 46
Cc1ccc(C(=O)[C@H](C)CN2CCCCC2)cc1 [Tolperisone HCl]	> 46
Cc1ccc(O)c([C@H](CCN(C(C)C)C(C)C)c2ccccc2)c1 [Tolterodina]	> 46
Cc1cc(-n2c(=O)[nH]c(=O)n(C)c2=O)ccc1Oc1ccc([S+](=O)([O-])C(F)(F)F)cc1 [Toltrazuril sulfone]	> 46
Cc1ccccc1 [Toluene]	> 46

SMILES	IC50 of cell viability [µM]
Cc1cccc(Nc2ccncc2[S+](=O)([O-])NC(=O)NC(C)C)c1 [Torsemide]	> 46
CCON=C(CC)C/1=C(O)/CC(CC1=O)C2=C(C)C=C(C)C=C2C (centres undefined) [Tralkoxydim]	> 46
COc1cccc([C@@]2(O)CCCC[C@@H]2CN(C)C)c1 [Tramadolum]	> 46
CCOC(=O)[C@H](CCc1ccccc1)N[C@@H](C)C(=O)N1[C@H](C(=O)O)C[C@H]2CCCC[C@@H]21 [Trandolapril]	> 46
COc1ccc(/C=C/C(=O)Nc2ccccc2C(=O)O)cc1OC [Tranilast]	> 46
N[C@@H]1C[C@H]1c1ccccc1 [Tranylcypromine hydrochloride]	> 46
ClC1=CC(=CC=C1)N2CCN(CCCN3\N=C4\C=C/C=C\N4C3=O)CC2 [Trazodone hydrochloride]	> 46
CC(=O)OCC(COC(C)=O)OC(C)=O [Triacetin]	> 46
CC(C)(C)C(O)C(Oc1ccc(Cl)cc1)n1cncn1 (centres undefined) [Triadimenol]	> 46
CC1(C)O[C@@H]2C[C@H]3[C@@H]4CCC/5=C/C(=O)/C=C\[C@]5(C)[C@@]4(F)[C@@H](O)C[C@]3(C)[C@@]2(O1)C(=O)CO [Triamcinolone acetonide]	> 46
CCO[C@H]1O[C@@H]([C@H](COCc2ccccc2)OCc2ccccc2)[C@@H](OCc2ccccc2)[C@@H]1O [Tribenoside]	> 46
CCCCCCCC(=O)OCC(COC(=O)CCCCCCC)OC(=O)CCCCCCC [Tricaprylin]	> 46
COP(=O)(OC)C(O)C(Cl)(Cl)Cl (centres undefined) [Trichlorfon]	> 46
N[S+](=O)([O-])c1cc2c(cc1Cl)N[C@@H](C(Cl)Cl)N[S+]2(=O)[O-] [Trichlormethiazide]	> 46
O=C(O)C(Cl)(Cl)Cl [Trichloroacetic acid]	> 46
ClC=C(Cl)Cl [Trichloroethylene]	> 46
O=C(O)COc1nc(Cl)c(Cl)cc1Cl [Triclopyr]	> 46
Oc1cc(Cl)ccc1Oc1ccc(Cl)cc1Cl [Triclosan]	> 46
NCCNCCNCCN [Triethylenetetramine]	> 46
O=c1[nH]c(=O)n(C2C[C@H](O)[C@@H](CO)O2)cc1C(F)(F)F (some centres undefined) [Trifluridine]	> 46

Other lines, results leading:

IC50 of cell viability [µM]	SMILES
> 46	O=C1OC(c2cc(I)c(O)c(I)c2)(c2cc(I)c(O)c(I)c2)c2ccccc21 [Tetraiodophenolphthalein]
> 46	Cn1cnc2c1c(=O)[nH]c(=O)n2C [Theobromine]
> 46	Cn1c(=O)c2c(ncn2CCOC(=O)C(C)(C)Oc2ccc(Cl)cc2)n(C)c1=O [Theofibrate]
> 46	CCSc1ccc2c(c1)N(CCCN1CCN(C)CC1)c1ccccc1S2.O=C(O)C[C@@H](O)C(=O)O.O=C(O)C[C@@H](O)C(=O)O [Thiethylperazine malate]
> 46	O=C(CS)Nc1ccccc1 [Thioglycolic acid anilide]
> 46	S=P(N1CC1)(N1CC1)N1CC1 [Thiotepa]
> 46	CCN(CC)CCSC(=O)C(c1ccccc1)c1ccccc1 [Thiphenamil hydrochloride]
> 46	CCCCCCCCCCCCCCCC[N+](C)(C)CCN(Cc1ccc(OC)cc1)c1ncccn1 [Thonzonium bromide]
> 46	CCN(CC)CCNC(=O)c1cc([S+](C)(=O)[O-])ccc1OC [Tiapride hydrochloride]
> 46	C[C@@H](C(=O)O)c1ccc(C(=O)c2ccccc2)s1 [Tiaprofenic acid]
> 46	[Na+].[Na+].CC1(C)S[C@H]2[C@H](NC(=O)[C@H](C([O-])=O)C3=CSC=C3)C(=O)[N@]2[C@H]1C([O-])=O [Ticarcillin sodium]
> 46	O=C(O)COc1ccc(C(=O)c2cccs2)c(Cl)c1Cl [Ticrynafen]
> 46	CN(C)c1cc(NC(=O)CNC(C)(C)C)c(O)c2c1C[C@H]1C[C@H]3[C@H](N(C)C)C(O)=C(C(N)=O)C(=O)[C@]3(O)C(O)=C1C2=O [Tigecycline]
> 46	[2H]c1c([2H])c([2H])c2c([nH]c(=S)n2C2CCN(CCCC(=O)c3ccc(F)cc3)CC2)c1[2H] [Timiperone]
> 46	CC[S+](=O)([O-])CCn1c([N+](=O)[O-])cnc1C [Tinidazole]
> 46	CCOC(=O)Nc1ccc2c(c1)N(C(=O)CN(C)C)c1ccccc1CC2 [Tiracizine]
> 46	O=C(O)Cc1cc(I)c(Oc2ccc(O)c(I)c2)c(I)c1 [Tiratricol, 3,3',5-triiodothyroacetic acid]

IC50 of cell viability [µM]	SMILES
> 46	CCCC[S+](=O)([O-])N[C@@H](Cc1ccc(OCCCCC2CCNCC2)cc1)C(=O)O.Cl.O [Tirofiban]
> 46	Cc1cccc(C)c1NC(=O)[C@H](C)N [Tocainide hydrochloride]
> 46	CCOC(=O)NNc1nncc2ccccc12 [Todralazine hydrochloride]
> 46	Cc1ccc(C(=O)c2ccc(CC(=O)[O-])n2C)cc1.O.O.[Na+] [Tolmetin sodium salt dihydrate]
> 46	Cc1cccc(N(C)C(=S)Oc2ccc3ccccc3c2)c1 [Tolnaftate]
> 46	COc1ccc2c(C(=S)N(C)CC(=O)O)cccc2c1C(F)(F)F [Tolrestat]
> 46	Cc1cc2nc3ccc(N(C)C)cc3[s+]c2cc1N [Toluidine blue]
> 46	CNCCC(Oc1ccccc1C)c1ccccc1 (centres undefined) [Tomoxetine]
> 46	CCCCNc1c(C(=O)OCC)c(C)nc2c1cnn2CC [Tracazolate hydrochloride]
> 46	NCC1CCC(C(=O)O)CC1 (centres undefined) [Tranexamic acid]
> 46	OCCOCCN1CCN(C(c2ccccc2)c2ccc(Cl)cc2)CC1 (centres undefined) [Tranquizine]
> 46	CC(=O)OCC(=O)[C@@]1(O)[C@@H](C[C@H]2[C@@H]3CC\C4=C\C(=O)\C=C/[C@]4(C)[C@@]3(F)[C@@H](O)C[C@]12C)OC(C)=O [Triamcinolone diacetate]
> 46	CC(C)(C)CC(=O)OCC(=O)[C@@]12OC(C)(C)O[C@@H]1C[C@H]1[C@@H]3CCC4=CC(=O)C=C[C@]4(C)[C@@]3(F)[C@@H](O)C[C@]12C [Triamcinolone hexacetonide]
> 46	Nc1nc(N)c2nc(-c3ccccc3)c(N)nc2n1 [Triamterene]
> 46	Cl.O=C(CCCN1CCC(O)(c2cccc(C(F)(F)F)c2)CC1)c1ccc(F)cc1 [Trifluperidol hydrochloride]
> 46	CC(=O)Oc1cc(C(F)(F)F)ccc1C(=O)O [Triflusal]
